According to patent publication US7141661B2, “Non-steroidal anti-inflammatory drug activated gene with anti-tumorigenic properties” (The United States of America as represented by the …, priority 2000, dated 2006):

Columns and labels:
Assay type in all cases: cell-based, human
NAG-1 [1] = experiment: Northern blot NAG-1 induction in U937 leukemia cells; settings: 24 hr
Description: (§1) NSAID-induced apoptosis is not restricted to colorectal cells, as NSAIDs can induce apoptosis in breast, lung, leukemia, and prostate cell lines. To test for the induction of NAG-1 by NSAIDs in different cell lines, A549 lung epithelial cells, MCF-7 mammary cells, PC-3 prostate cancer cells, and U937 leukemia cell lines were treated with several concentrations of INDO and aspirin. Then, as described above, Northern blot analysis was performed. […] Quiescent cells were grown for 24 hr in the presence of indicated NSAIDs. Total RNAs were isolated and subjected to Northern analysis using NAG-1 and β-actin as probes. The blots contained 10 μg of total RNA from INDO- or Aspirin (Asp)-treated cells with indicated doses. “V” indicates total RNAs from vehicle (0.2% DMSO) treated cells. The results shown are representative of those obtained in two experiments.

NAG-1 [2] = experiment: Northern blot analysis of NAG-1 mRNA expression in HCT-116 cells; settings: for NAG-1 Induction (mRNA) Fold: HCT-116, 24 hr in absence of serum, relative NAG-1 mRNA over vehicle control (1.0), tested over the concentration range listed; for NAG-1 expression induction: HCT-116, at any concentration tested
Description: Upon reaching 60–80% confluence in 10 cm plates, the cells were treated at indicated concentrations and times with either different NSAIDs or PPARγ ligands in the absence of serum. Total RNAs were isolated using TRIzol reagent (Life Technologies) according to the manufacturer's protocol. For Northern blot analysis, […] of total RNA was denatured at 55° C. for 15 min and separated in a 1.2% agarose gel containing 2.2 M formaldehyde, and transferred to Hybond-N membrane ([…]). After fixing the membrane by UV, blots were prehybridized in hybridization solution (Rapid-hyb buffer, […]) for 1 hr at 65° C. followed by hybridization with cDNA labeled with [α-^32P]dCTP by random primer extension (DECAprimeII kit, Ambion). The probes used were either full-length NAG-1 fragment or PTGFB clone (generously provided by Dr. Bento-Soar of the University of Iowa). After 4 hr incubation at 65° C., the blots were washed once with 2×SSC/0.1% SDS at RT and twice with 0.1×SSC/0.1% SDS at 65° C. Messenger RNA abundance Was estimated by intensities of the hybridization bands of autoradiographs using Scion Image (Scion). Equivalent loading of RNA samples was confirmed by hybridizing the same blot with a ^32P-labeled b-actin probe which recognizes RNA of approximately 2 kb.
To determine whether other NSAIDs increased apoptosis and NAG-1 expression, tests were conducted to determine whether variants of NSAIDs induced NAG-1 gene expression and NSAID-induced apoptosis. Aspirin, ibuprofen, indomethacin, and sulindac sulfide were selected since they are known COX inhibitors. […] HCT-116 cells were treated with different NSAIDs (vehicle, 0.2% DMSO; aspirin, 10 mM; ibuprofen, 1 mM; sodium salicylate, 5 mM; sulindac sulfide, 50 μM; sulindac, 40 μM; acetaminophen, 100 μM) for 24 hr in the absence of serum. Northern analysis was performed using NAG-1 and β-actin as probes. Total RNAs were isolated from NSAID-treated HCT-116 cells after 24 hr treatment and Northern blot was performed using NAG-1 cDNA as a probe (data not shown). […] Each of the doses were as follows: aspirin (1, 5, 10 mM); ibuprofen (100, 500, 1000 μM); salicylate (1, 2.5, 5 mM); sulindac sulfide (1, 10, 50 μM); sulindac (10, 20, 40 μM); acetaminophen (10, 50, 100 μM). After 48 hr treatment with NSAIDs in the presence of serum, cells were harvested and assayed as described in FIG. 1C. Apoptosis detected by PI staining was measured by FACS, as known in the art (FIG. 2A; HCT-116 cells were treated with different NSAIDs (vehicle, 0.2% DMSO; Aspirin, 10 mM; Ibuprofen, 1 mM; Sodium Salicylate, 5 mM; Sulindac Sulfide, 50 μM; Sulindac, 40 μM; Acetaminophen, 100 μM) for 24 hr in the absence of serum. Northern analysis was performed using NAG-1 and β-actin as probes. The open bars represent the relative expression of NAG-1 mRNA over the control (vehicle). The hatched bars represent the relative apoptosis ratio over vehicle treatment by PI staining methods. N=3±S.D.).
(§2) In the Table below, HCT-116 cells were treated with different NSAIDs (vehicle, 0.2% DMSO) for 24 hr in the absence of serum. Northern analysis was performed using NAG-1 and β-actin as probes. The data represent relative expression of NAG-1 mRNA over the control (1.0). Each NSAID was tested at 3 different concentrations and maximally effective concentration used for apoptosis determination. Apoptosis ratio by PI staining was measured by FACS. After 48 hr treatment with NSAIDs in the presence of serum, cells were harvested and assayed. The data represent relative apoptosis ratio over vehicle treatment by PI staining methods. TACS™ Annexin V-FITC kit was also used to confirm apoptosis.

NAG-1 [3] = experiment: Northern blot NAG-1 induction in A549 lung carcinoma cells; settings: 10 mM, 24 hr
Description: as §1

NAG-1 [4] = experiment: Northern blot NAG-1 induction in PC-3 prostate cells; settings: PC-3 cells, 10 mM, 24 hr
Description: as §1

HCT-116 cells = experiment: Apoptosis and cell cycle by PI staining / FACS in HCT-116 cells; settings: for Apoptosis (PI Staining), relative apoptosis ratio over vehicle: HCT-116, 48 hr in presence of serum, maximally effective concentration, FACS
Description: To determine whether NAG-1 gene expression is associated with NSAID-induced apoptosis or altered cell cycle kinetics, flow cytometric analysis of the distribution of cells at various stages of the cell cycle was performed. Apoptosis and cell cycle kinetics of INDO-treated HCT-116 cells were measured at different time points. HCT-116 cells were treated with INDO, stained with PI, and analyzed by flow cytometry. Seven thousand five hundred cells were examined by flow cytometry by gating on an area versus width dot plot to exclude cell debris and cell aggregates. Apoptosis is represented by the fold increase in sub-G1 population over 0 hr treatment.
The DNA content for NSAIDs, PPARγ ligand, and vehicle treated HCT-116 cells was determined by FACS. Cells were plated at a density of 4×10^5 cells/well in 2 ml of medium in 6 well plates, incubated for 16 h, and then treated with NSAIDs or TGZ in the presence of serum. After treatment, the cells were harvested, washed with PBS, fixed by the slow addition of cold 70% ethanol to a total of 1 ml, and stored overnight at 4° C. The fixed cells were pelleted, washed once with PBS, and stained in 1 ml of 20 μg/ml of propidium iodide (PI), 1 mg/ml RNase in PBS for 20 min. Seven thousand five hundred cells were examined by flow cytometry using Becton Dickinson FACSort equipped with CellQuest software, by gating on an area versus width dot plot to exclude cell debris and cell aggregates. Each cell cycle distribution was analyzed by the McCycle program using one cell cycle parameter. Apoptosis was measured based on the level of sub-diploid DNA contained in cells following treatment with NSAIDs or TGZ using CellQuest software.
as §2, with “Northern” for “In the Table below, HCT-116 cells were treated with different NSAIDs (vehicle, 0.2% DMSO) for 24 hr in the absence of serum. Northern”, “After 48 hr treatment with NSAIDs in the presence of serum, cells were harvested and assayed.” left out

NAG-1 [5] = experiment: Northern blot NAG-1 induction in MCF-7 breast carcinoma cells; settings: MCF-7 cells, 10 mM, 24 hr
Description: as §1

NAG-1 promoter = NAG-1 promoter (pNAG2021) luciferase reporter assay in transiently transfected HCT-116 cells; settings: pNAG2021 in HCT-116, 24 hr; TGZ 10 μM, sulindac 40 μM, acetaminophen 100 μM, other NSAIDs; versus vehicle
NAG-1 [6] = experiment: Western blot analysis of secreted NAG-1 protein from HCT-116 cells; settings: HCT-116, 5 μM TGZ
Description: The level of secreted NAG-1 was evaluated using Western blot analysis with anti-human-NAG-1 antibody (generously provided by Dr. Paralkar of Pfizer). HCT-116 cells were grown to 60–80% confluency in 10 cm plates followed by 48 hr treatment in the absence of serum with either NSAIDs or TGZ. The media were harvested and concentrated approximately 15-fold using Centriprep 10 concentrators (Amicon). Proteins (30 μg) were separated by 15% SDS-PAGE and transferred for 1 hr onto nitrocellulose membrane (Schleicher & Schuell). The blots were blocked for 1 hr with 5% skim milk in TBS/Tween 0.05%, and probed with anti-NAG-1 antibody (1 μg/ml in TBS-0.2%-Tween20) at […] overnight. After washing, the blots were treated with horseradish peroxidase-conjugated secondary antibody for 1 hr and washed several times. The signal was detected by enhanced chemiluminescence system (AMERSHAM) and autoradiography.
HCT-116 cells were treated with 100 μM INDO in the absence of serum for various times. In FIG. 1B, left panel. 10 μg of total RNA was loaded in each lane. Northern blotting was performed using the NAG-1 probe and re-probed with β-actin probe. The hybridization signals were quantitated using Scion Image software (Scion). Levels of the 1.3 kb NAG-1 transcript were normalized to the levels of β-actin transcripts and represented relative to 0 hr treatment. […] The signal was detected by ECL reagent (AMERSHAM).

Row | SMILES | NAG-1 Induction (mRNA) Fold (NAG-1 [2]) [Fold] | Apoptosis (PI Staining), relative apoptosis ratio over vehicle (HCT-116 cells) | further results
1 | CC(=O)Oc1ccccc1C(=O)O [Aspirin] | 3.5 | 3.5 ± 0.451 | NAG-1 expression (NAG-1 [1]; 5 mM): significantly increased; NAG-1 induction (NAG-1 [1]; 10 mM): high NAG-1 induction; NAG-1 induction (NAG-1 [3]): high NAG-1 induction; NAG-1 induction (NAG-1 [4]): high NAG-1 induction; NAG-1 induction (NAG-1 [5]): high NAG-1 induction
2 | Cc1c(C)c2c(c(C)c1O)CCC(C)(COc1ccc(CC3SC(=O)NC3=O)cc1)O2 (stereo not shown) [TGZ, Troglitazone] | – | – | Induction of luciferase reporter activity (2021 bp NAG-1 promoter) (NAG-1 promoter): 3 fold; Induction of NAG-1 gene expression (NAG-1 [2]; HCT-116, 5 μM): 3 fold; Earliest time at which increase in NAG-1 mRNA was observed (NAG-1 [2]; HCT-116, 5 μM TGZ): 3 h; Time at which increase in NAG-1 protein was observed (NAG-1 [6]): 6 h; Earliest time at which apoptosis was observed (HCT-116 cells; HCT-116, presence of serum, TGZ 5 μM): 12 h; Time point at which G1 arrest was seen (HCT-116 cells; HCT-116, TGZ 5 μM): 12 h
3 | CC(C)Cc1ccc(C(C)C(=O)O)cc1 (stereo not shown) [Ibuprofen] | 4.5 | 4.3 ± 0.666 | –
4 | CS(=O)(=O)Nc1ccc([N+](=O)[O-])cc1OC1CCCCC1 [NS-398] | 0.9 | 1.029 ± 0.109 | –
5 | CC1=C(CC(=O)O)c2cc(F)ccc2/C1=C\c1ccc(S(C)(=O)=O)cc1 [Sulindac Sulfone] | 1.3 | 1.6 ± 0.043 | –
6 | O=C(O)Cc1ccccc1Nc1c(Cl)cccc1Cl [Diclofenac] | 3.7 | 4.0 ± 0.315 | –
7 | O=C([O-])c1ccccc1O.[Na+] [Sodium Salicylate] | 3.0 | 1.8 ± 0.252 | –
8 | CSc1ccc(/C=C2/C(C)=C(CC(=O)O)c3cc(F)ccc32)cc1 [Sulindac Sulfide] | 4.6 | 4.3 ± 0.737 | –
9 | CC1(C)OC(=O)C(c2cccc(F)c2)=C1c1ccc(S(C)(=O)=O)cc1 [DFU] | 1.0 | 0.54 ± 0.091 | –
10 | CN1C(C(=O)Nc2ccccn2)=C(O)c2ccccc2S1(=O)=O [Piroxicam] | 2.5 | 1.9 ± 0.145 | –
11 | CCCCC/C=C/C=C1/C(=O)C=C[C@@H]1C/C=C\CCCC(=O)O [15d-PGJ2, 15-deoxy-Δ^12,14-prostaglandin J2] | – | – | Induction of NAG-1 gene expression (NAG-1 [2]; HCT-116, 1 μM): 3 fold
12 | CC(=O)Nc1ccc(O)cc1 [Acetaminophen] | 0.9 | 0.9 ± 0.153 | Induction of luciferase reporter activity (2021 bp NAG-1 promoter) (NAG-1 promoter): did not increase luciferase activity; NAG-1 expression induction (NAG-1 [2]): did not induce NAG-1 expression
13 | CC1=C(CC(=O)O)c2cc(F)ccc2/C1=C\c1ccc([S+](C)[O-])cc1 (stereo not shown) [Sulmdac, Sulindac] | 1.5 | 1.1 ± 0.173 | Induction of luciferase reporter activity (2021 bp NAG-1 promoter) (NAG-1 promoter): did not increase luciferase activity; NAG-1 expression induction (NAG-1 [2]): did not induce NAG-1 expression
14 | Cc1ccc(-c2cc(C(F)(F)F)nn2-c2ccc(S(N)(=O)=O)cc2)cc1 [Celecoxib] | 1.0 | 0.722 ± 0.098 | –
